Earlier results, collected in patent publication US20110262436A1, “TREATMENT METHOD” (Genentech, Inc., priority 2008, published 2011).

Tested on: advanced, treatment-refractory NSCLC
Settings: phase III trial; cited from earlier work

In the case of `C#Cc1cccc(Nc2ncnc3cc(OCCOC)c(OCCOC)cc23)c1` [erlotinib, N-(3-ethynylphenyl)-6,7-bis(2-methoxyethoxy)-4-quinazolinamine], the “Survival, erlotinib monotherapy” value is listed as “significantly prolonged survival”.
